Experimental data published in patent US20100041089A1, “IMPROVED METHOD FOR DETECTING CHEMICAL […]” (priority 2006, published 2010).

Tested on: yeast genes (expressed mRNA)
Assay: DNA chip measurement of expressed mRNA of yeast genes after culture with a toxic chemical substance
Assay type: cell-based, Saccharomyces cerevisiae S288C
Details: for level of expressed mRNA in the presence of chemical substance / level in the absence of chemical substance: cultured two hours with the chemical substance; for The level of expressed mRNA in the presence of chemical substance/The level of expressed mRNA in the absence of chemical substance: cultured two hours with substance
Method in brief: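 Fluorescence ratio, treated over untreated, read by chip scanner; ratio of two or more counted significant. Cells: S288C yeast, YPD, 25° C, chemical added at log phase for 2 h at growth-inhibiting, sublethal level. Cy3/Cy5-labeled cDNA from oligo-dT-purified mRNA.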

Manganese ethylenebis(dithiocarbamate) [(8)]
level of expressed mRNA in the presence of chemical substance / level in the absence of chemical substance (yeast gene YJL097W): 0.8 | The level of expressed mRNA in the presence of chemical substance/The level of expressed mRNA in the absence of chemical substance (yeast gene YJL151C): 0.8 | The level of expressed mRNA in the presence of chemical substance/The level of expressed mRNA in the absence of chemical substance (yeast gene YJL152W): 0.7 | The level of expressed mRNA in the presence of chemical substance/The level of expressed mRNA in the absence of chemical substance (yeast gene YJL161W): 1.4 | The level of expressed mRNA in the presence of chemical substance/The level of expressed mRNA in the absence of chemical substance (yeast gene YJL171C): 0.9 | The level of expressed mRNA in the presence of chemical substance/The level of expressed mRNA in the absence of chemical substance (yeast gene YJR008W): 1.1 | level of expressed mRNA in the presence of chemical substance / level in the absence of chemical substance (yeast gene YJR030C): 0.9 | The level of expressed mRNA in the presence of chemical substance/The level of expressed mRNA in the absence of chemical substance (yeast gene YJR054W): 1.6 | level of expressed mRNA in the presence of chemical substance / level in the absence of chemical substance (yeast gene YKL051W): 0.8 | The level of expressed mRNA in the presence of chemical substance/The level of expressed mRNA in the absence of chemical substance (yeast gene YKL071W): 24.7 | The level of expressed mRNA in the presence of chemical substance/The level of expressed mRNA in the absence of chemical substance (yeast gene YKL086W): 1.1 | level of expressed mRNA in the presence of chemical substance / level in the absence of chemical substance (yeast gene YKL097C): 0.4 | level of expressed mRNA in the presence of chemical substance / level in the absence of chemical substance (yeast gene YKL100C): 0.7 | The level of expressed mRNA in the presence of chemical substance/The level of expressed mRNA in the absence of chemical substance (yeast gene YKL151C): 1.0 | The level of expressed mRNA in the presence of chemical substance/The level of expressed mRNA in the absence of chemical substance (yeast gene YKL153W): 0.7 | The level of expressed mRNA in the presence of chemical substance/The level of expressed mRNA in the absence of chemical substance (yeast gene YKL195W): 1.2 | level of expressed mRNA in the presence of chemical substance / level in the absence of chemical substance (yeast gene YKR040C): 1.0 | The level of expressed mRNA in the presence of chemical substance/The level of expressed mRNA in the absence of chemical substance (yeast gene YKR091W): 1.3 | The level of expressed mRNA in the presence of chemical substance/The level of expressed mRNA in the absence of chemical substance (yeast gene YLR054C): 1.1 | The level of expressed mRNA in the presence of chemical substance/The level of expressed mRNA in the absence of chemical substance (yeast gene YLR149C): 1.1 | The level of expressed mRNA in the presence of chemical substance/The level of expressed mRNA in the absence of chemical substance (yeast gene YLR152C): 1.2 | The level of expressed mRNA in the presence of chemical substance/The level of expressed mRNA in the absence of chemical substance (yeast gene YLR194C): 1.0 | level of expressed mRNA in the presence of chemical substance / level in the absence of chemical substance (yeast gene YLR226W): 1.3 | The level of expressed mRNA in the presence of chemical substance/The level of expressed mRNA in the absence of chemical substance (yeast gene YLR324W): 1.0 | level of expressed mRNA in the presence of chemical substance / level in the absence of chemical substance (yeast gene YLR338W): 0.8 | The level of expressed mRNA in the presence of chemical substance/The level of expressed mRNA in the absence of chemical substance (yeast gene YLR350W): 1.0 | The level of expressed mRNA in the presence of chemical substance/The level of expressed mRNA in the absence of chemical substance (yeast gene YLR387C): 1.4 | level of expressed mRNA in the presence of chemical substance / level in the absence of chemical substance (yeast gene YLR392C): 1.3 | level of expressed mRNA in the presence of chemical substance / level in the absence of chemical substance (yeast gene YLR415C): 0.9 | level of expressed mRNA in the presence of chemical substance / level in the absence of chemical substance (yeast gene YLR427W): 1.1 | The level of expressed mRNA in the presence of chemical substance/The level of expressed mRNA in the absence of chemical substance (yeast gene YLR460C): 8.1 | level of expressed mRNA in the presence of chemical substance / level in the absence of chemical substance (yeast gene YML013W): 0.6 | level of expressed mRNA in the presence of chemical substance / level in the absence of chemical substance (yeast gene YML029W): 0.9 | level of expressed mRNA in the presence of chemical substance / level in the absence of chemical substance (yeast gene YML041C): 1.8 | level of expressed mRNA in the presence of chemical substance / level in the absence of chemical substance (yeast gene YML079W): 1.2 | The level of expressed mRNA in the presence of chemical substance/The level of expressed mRNA in the absence of chemical substance (yeast gene YML117W): 0.7 | The level of expressed mRNA in the presence of chemical substance/The level of expressed mRNA in the absence of chemical substance (yeast gene YMR009W): 1.4 | The level of expressed mRNA in the presence of chemical substance/The level of expressed mRNA in the absence of chemical substance (yeast gene YMR067C): 1.1 | level of expressed mRNA in the presence of chemical substance / level in the absence of chemical substance (yeast gene YMR068W): 0.8 | level of expressed mRNA in the presence of chemical substance / level in the absence of chemical substance (yeast gene YMR071C): 1.1 | The level of expressed mRNA in the presence of chemical substance/The level of expressed mRNA in the absence of chemical substance (yeast gene YMR090W): 3.9 | The level of expressed mRNA in the presence of chemical substance/The level of expressed mRNA in the absence of chemical substance (yeast gene YMR095C): 1.2 | The level of expressed mRNA in the presence of chemical substance/The level of expressed mRNA in the absence of chemical substance (yeast gene YMR097C): 1.5 | The level of expressed mRNA in the presence of chemical substance/The level of expressed mRNA in the absence of chemical substance (yeast gene YMR102C): 1.0 | The level of expressed mRNA in the presence of chemical substance/The level of expressed mRNA in the absence of chemical substance (yeast gene YMR107W): 1.3 | level of expressed mRNA in the presence of chemical substance / level in the absence of chemical substance (yeast gene YMR160W): 0.9 | The level of expressed mRNA in the presence of chemical substance/The level of expressed mRNA in the absence of chemical substance (yeast gene YMR180C): 1.8 | The level of expressed mRNA in the presence of chemical substance/The level of expressed mRNA in the absence of chemical substance (yeast gene YMR184W): 1.9 | The level of expressed mRNA in the presence of chemical substance/The level of expressed mRNA in the absence of chemical substance (yeast gene YMR191W): 1.1 | The level of expressed mRNA in the presence of chemical substance/The level of expressed mRNA in the absence of chemical substance (yeast gene YMR295C): 1.0 | The level of expressed mRNA in the presence of chemical substance/The level of expressed mRNA in the absence of chemical substance (yeast gene YMR316W): 1.6 | level of expressed mRNA in the presence of chemical substance / level in the absence of chemical substance (yeast gene YNL026W): 1.0
